According to paper PMC12080312 (2025):

What was measured:
[1] = tested on: N1MA1a (DNA, aptamer) GACGACACATAATTGTTGATCCACTGTTTATTAGGTGTCGTC; test: ITC; conditions: 500 mM Na+, 20 mM Mg2+; 50 mM Tris, pH 7.6, 25 °C; abstract prints 0.75 ± 0.04
[2] = tested on: N1MA2a (DNA, aptamer) GACGACAAGGTTGCTGGTCTGGTACAGAGATAGTTCGTCGTC; test: ITC; conditions: 500 mM Na+, 20 mM Mg2+; 50 mM Tris, pH 7.6, 25 °C
[3] = tested on: AdeApt (classical adenosine aptamer) (DNA, aptamer) ACCTGGGGGAGTATTGCGGAGGAAGGT; test: ThT fluorescence displacement; conditions: 500 mM Na+, 20 mM Mg2+; Kd could not be fitted; 50 mM Tris, pH 7.6; ThT tracer

Cn1cnc2c(ncn2[C@@H]2O[C@H](CO)[C@@H](O)[C@H]2O)c1=N
Kd [1]: 0.75 ± 0.07 µM | Kd [2]: 7.3 ± 7.5 µM | binding [3]: weak
